# Values joined by “and” are separate entries in the source; they are usually repeats but may differ in a detail not shown here. Identical values can stand only once. “Also recorded” adds a separate entry of the source. Where no end group is shown, it is not given here.
# Experiments:
# Format in all cases: cell-based, human
# T cell clones [1] = experiment: IFN-γ ELISPOT of T cell clones with peptides and autologous EBV-LCL; settings: for ELISPOT response (spot forming units) of T cell clones: 10 μM; for T cell clones positive in screening ELISPOT: 94 out of 400 clones screened; for retest of screen-positive T cell clones (ELISPOT): 1000 T cell clone cells in duplicate; for ELISPOT response (spot-forming units) of T cell clones: subject 15 clones specific for E6 26-40, peptides 10 μM; for ELISPOT response of 27G6 clone: subject 1, E7-specific clone; for ELISPOT response of T cell clones: subject 5 clones #1-5 and #17-5
# Procedure: A method described previously was used with some modifications (Larsson, M. et al., 2002). Briefly, a 96-well plate (Millititer, Millipore, Bedford, Mass.) was coated with 5μg/ml primary anti-γ-IFN monoclonal antibody (Mabtech, Stockholm, Sweden) and stored at 4° C. overnight. The plate was then washed 4 times with phosphate buffered saline (PBS) and blocked using RPMI 1640 plus 5% pooled human serum for 1 h at 37° C.
# To examine the pattern of CD8 T cell epitopes (FIG. 1), 1×10^5cells of a CD8 T cell line were plated in each well. Overlapping 15-mer peptides (overlapping by the 10 central amino acids) were pooled to 10 groups (each group containing 3 peptides) and tested in duplicate (10 μM for each peptide) along with no peptide control. For screening T cell clones, 50 μl of culture media containing the T cell clones was added with 1×10^5 autologous Epstein-Barr virus-transformed B lymphoblastoid cell line (EBV-LCL) cells (data not shown). With the remaining experiments using T cell clones, 1×10^3 T cell clones were plated along with 1×10^5EBV-LCL cells to reduce the number of T cell clones necessary for analysis. All peptides were used at a concentration of 10 μM.
# Autologous EBV-LCL cells were incubated with E6-vac, E7-vac or WR at the multiplicity of infection of 10 for 1 h at 37° C. prior to being plated (FIG. 2B). Phytohemagglutinin (PHA) at 10 μg/ml was added as positive control. After a 24 h incubation at 37° C., the plate was washed 4 times with PS plus 0.05% Tween-20. A total of 50 μl of secondary antibody (1 μg/ml biotin-conjugated anti-IFNγ monoclonal antibody; Mabtech) was added and the plate was incubated for 2 h at 37° C. The plate was then washed 4 times with PBS plus 0.1% Tween-20. Avidin-bound biotinylated horseradish peroxidase H (Vectastain Elite kit; Vector laboratories, Inc., Burligame, Calif.) was added […] and air-dried overnight. Spot forming units were counted using an automated ELISPOT analyzer (Cell Technology, Inc., Jessup, Md.) and were normalized to number of spot forming units per 1×10^6 cells for CD8 T cell lines. Response was considered positive when the number of spot forming units in wells with peptide pools was at least double that seen in the no peptide control wells.
# To isolate T cell clones recognizing the E6 antigenic epitope from subject 15, their CD8 T cell lines were stimulated as described above for two additional 7-day cycles, so the frequency of targeted T cell clones would be above the threshold of selection (≧0.1%). The peptide-specific T cells were positively selected using the IFN-γ secretion assay enrichment kit, according to the manufacturer's instructions (Miltenyi Biotec), after stimulating cells with 10 μM each of peptides contained in the E6 16-40 (SEQ ID NO. 36) pool. Selected cells were plated at a concentration of 0.5 cells per well in the presence of a 0.5× feeder cell mixture (Yssel's media containing 1% pooled human serum, penicillin G 100 units/ml, streptomycin 100 μg/ml, 5×10^5/ml irradiated allogenic PBMC, 5×10^4/ml irradiated JY cells, 0.1 μg/ml PHA, with/without 10 u/ml rIL-4). Control wells for growth contained 1 to 1000 cells per well. On day 5, 100 μl of Yssel's media containing 20 U/ml of rIL-2 was added to each well. Growing microcultures were transferred to 24-well plates containing 1 ml of 1× feeder cell mixture per well (Yssel's media containing 1% pooled human serum, penicillin G 100 units/ml, streptomycin 100 μg/ml, 1×10^6/ml irradiated allogenic PBMC, 1×10^5/ml irradiated JY cells and 0.1 μg/ml PHA).
# All peptides were used at a concentration of […] and 1×10^3 T cell clones along with 1×10^5 autologous LCL cells were plated to each well.
# CD8 T cell line = experiment: IFN-γ ELISPOT of CD8 T cell lines with pooled overlapping 15-mer peptides; design: key to CD8 T cell response to HPV 16 E6 region: The strongest T cell response for a given subject is indicated with upper case X; x: subdominant response is indicated with lower case X; settings: for CD8 T cell response to HPV 16 E6 region: pooled 15-mer peptides, 10 μM each
# T cell clones [2] = experiment: ELISPOT with E6-vac/E7-vac-infected autologous EBV-LCL (naturally processed epitope)
# [3] = subject 20 clones #60-20, #127-20, #138-20
# [4] = subject 20, E6 16-40 region (eight clones), E6 31-55 region (four clones)
substance,measurement,setting,value
"E6 32-38: HPV16 E6 7-mer, residues 32-38 (DIILECV; Human Papilloma Virus 16; CHAIN residues 32-38 of the E6 protein)",ELISPOT response (spot forming units) of T cell clones,T cell clones [1]; [3],Less number of spot forming units
PRKLPQLCTELQTTI (Human Papilloma Virus 16; CHAIN residues 16-30 of the E6 protein) [E6 16-30],T cell clones positive in screening ELISPOT,T cell clones [1]; subject 15,one
same,retest of screen-positive T cell clones (ELISPOT),T cell clones [1]; subject 15,negative; also recorded: false positives
E6 91-115: pool of three overlapping 15-mers covering HPV16 E6 91-115 (YGTTLEQQYNKPLCDLLIRCINCQK; cysteine pairing not given here; also: pool of overlapping 15-mers),CD8 T cell response to HPV 16 E6 region,CD8 T cell line; Subject 18,X
LQTTIHDIILECVYC (Human Papilloma Virus 16; CHAIN residues 26-40 of the E6 protein) [E6 26-40],screen-positive T cell clones positive for the 15-mer peptide on retest,T cell clones [1]; subject 5,none of 5
same,screen-positive T cell clones positive for the 15-mer peptide on retest,"T cell clones [1]; subject 7, of 10 (E6 16-40 region) or six (E6 46-70 region) clones",10 clones
same,T cell clones positive in screening ELISPOT,T cell clones [1]; subject 15,Thirteen
same,retest of screen-positive T cell clones (ELISPOT),T cell clones [1]; subject 15,confirming their specificity
same,retest of screen-positive T cell clones (ELISPOT),"T cell clones [1]; subject 15, listed as E6 24-60",confirmed
same,screen-positive T cell clones positive for the 15-mer peptide on retest,"T cell clones [1]; subject 15, of 14 clones positive for E6 16-40 region",10 clones
same,ELISPOT response (spot-forming units) of T cell clones,T cell clones [1],similar
same,screen-positive T cell clones positive for the 15-mer peptide on retest,T cell clones [1]; [4],eight
EDLLMGTL (Human Papilloma Virus 16; CHAIN residues 80-87 of the E7 protein) [E7 80-87],ELISPOT response of 27G6 clone,T cell clones [1],smaller response; also recorded: partial IFN-γ secretion
"E6 144-154: HPV16 E6 11-mer, residues 144-154 (MSCCRSSRTRR; Human Papilloma Virus 16; CHAIN residues 144-154 of the E6 protein)",ELISPOT response of T cell clones,T cell clones [1],None of the 9-mers and the 11-mers was positive
AFRDLCIVY (Human Papilloma Virus 16; CHAIN residues 53-61 of the E6 protein) [E6 53-61],ELISPOT response of E6-specific T cell clones,"T cell clones [1]; subject 1 clones 2, 9 and 69",response
"E6 46-70: pool of three 15-mers: E6 46-60, E6 51-65, E6 56-70 (RREVYDFAFRDLCIVYRDGNPYAVC; not fully specified; cysteine pairing not given here)",CD8 T cell response to HPV 16 E6 region,CD8 T cell line; Subject 1,X
same,CD8 T cell response to HPV 16 E6 region,CD8 T cell line; Subject 2,X
same,CD8 T cell response to HPV 16 E6 region,CD8 T cell line; Subject 7,x
same,ELISPOT response of CD8 T cell line to peptide pools of E6 and E7,"CD8 T cell line; subject 1, pools of three 15-mers",demonstrated; also recorded: presence of one antigenic epitope
same,T cell clones positive with E6-vac infected autologous LCL,"T cell clones [2]; subject 7, MOI 5",six of 10 and 6 of 10
"E6 141-155: HPV16 E6 15-mer peptide, residues 141-155 (GRCMSCCRSSRTRRE; Human Papilloma Virus 16; CHAIN residues 141-155 of the E6 protein)",screen-positive T cell clones positive for the 15-mer peptide on retest,T cell clones [1]; subject 5,Two
same,ELISPOT response of T cell clones,T cell clones [1],confirmed
same,recognition of E6-vac infected autologous LCL / natural processing,T cell clones [2]; subject 5 clones #1-5 and #17-5,not with E6-vac infected autologous LCL; also recorded: not the E6-vac infected ones
LEDLLMGT (Human Papilloma Virus 16; CHAIN residues 79-86 of the E7 protein) [E7 79-86],ELISPOT response of 27G6 clone,T cell clones [1],smaller response; also recorded: did not show any activity above the background
QLCTELQTTIHDIIL (QLCTELETTIHDIIL; Human Papilloma Virus 16; CHAIN residues 21-35 of the E6 protein) [E6 21-35],T cell clones positive in screening ELISPOT,T cell clones [1]; subject 15,three
same,retest of screen-positive T cell clones (ELISPOT),T cell clones [1]; subject 15,negative; also recorded: false positives
"E6 142-152: HPV16 E6 11-mer, residues 142-152 (RCMSCCRSSRT; Human Papilloma Virus 16; CHAIN residues 142-152 of the E6 protein)",ELISPOT response of T cell clones,T cell clones [1],None of the 9-mers and the 11-mers was positive
IHDIILEC (Human Papilloma Virus 16; CHAIN residues 30-37 of the E6 protein) [E6 30-37],ELISPOT response (spot forming units) of T cell clones,T cell clones [1]; [3],Less number of spot forming units
"E6 30-38: HPV16 E6 9-mer peptide, residues 30-38 (IHDIILECV; Human Papilloma Virus 16; CHAIN residues 30-38 of the E6 protein)",ELISPOT response (spot forming units) of T cell clones,"T cell clones [1]; subject 7 dominant epitope, clones #12-7, #40-7, #59-7",positive
same,ELISPOT response (spot forming units) of T cell clones,T cell clones [1]; [3],positive; also recorded: similar; also recorded: large numbers of spot forming units
"E6 31-37: HPV16 E6 7-mer, residues 31-37 (HDIILEC; Human Papilloma Virus 16; CHAIN residues 31-37 of the E6 protein)",ELISPOT response (spot forming units) of T cell clones,T cell clones [1]; [3],Less number of spot forming units
TTIHDIILEC (Human Papilloma Virus 16; CHAIN residues 28-37 of the E6 protein) [E6 28-37],ELISPOT response (spot-forming units) of T cell clones,T cell clones [1],similar
DFAFRDLCIVY (Human Papilloma Virus 16; CHAIN residues 51-61 of the E6 protein) [E6 51-61],ELISPOT response (spot forming units) of T cell clones,"T cell clones [1]; subject 7 subdominant epitope, clones #15-7, #41-7, #54-7, #86-7",more number of spot forming units
HDIILECVYCKQQLL (Human Papilloma Virus 16; CHAIN residues 31-45 of the E6 protein) [E6 31-45],screen-positive T cell clones positive for the 15-mer peptide on retest,T cell clones [1]; [4],four
"E6 143-153: HPV16 E6 11-mer, residues 143-153 (CMSCCRSSRTR; Human Papilloma Virus 16; CHAIN residues 143-153 of the E6 protein)",ELISPOT response of T cell clones,T cell clones [1],None of the 9-mers and the 11-mers was positive
E6 136-158: pool of overlapping 15-mers covering HPV16 E6 136-158 (RGRWTGRCMSCCRSSRYRRETQK; cysteine pairing not given here; also: pool of overlapping 15-mers),CD8 T cell response to HPV 16 E6 region,CD8 T cell line; Subject 5,x
"E6 31-39: HPV16 E6 9-mer peptide, residues 31-39 (HDIILECVY; Human Papilloma Virus 16; CHAIN residues 31-39 of the E6 protein)",ELISPOT response (spot forming units) of T cell clones,T cell clones [1]; [3],positive; also recorded: similar; also recorded: large numbers of spot forming units
E6 61-85: pool of three overlapping 15-mers covering HPV16 E6 61-85 (YRDGNPYAVCDKCLKFYSKISEYRH; cysteine pairing not given here; also: pool of overlapping 15-mers),CD8 T cell response to HPV 16 E6 region,CD8 T cell line; Subject 18,x
same,CD8 T cell response to HPV 16 E6 region,CD8 T cell line; Subject 23,x

# Source: patent US20060182763A1, “CD8 T cell epitopes in HPV 16 E6 and E7 proteins and uses thereof” (priority 2005, published 2006)
